Experiment [1] relates to Cotton Aphid (Aphis gossypii). As to the kind of experiment: Cotton aphid seed coating assay on squash. The experiment is classed as in vivo. To be noted: 3 mg/seed, 10% SC formulation, counted 3 days after infestation. The method, then: Selected compounds of the invention were tested in assays designed to evaluate its systemic activity for control of cotton aphid through seed-coating prior to planting. The crop used in these assays was a hybrid squash (var. Pic-N-Pic). Test compound was formulated in a 10% SC formulation. Ten squash seeds were used for each treatment. Seeds were placed on waxed paper and a pipette was used to apply the original or diluted formulations to each seed. The air-dried, treated seeds were individually planted into 3 inch pots containing metro mix. The pots were placed on a California cart and moved into the greenhouse for sub watering only. At the specified number of days after planting, the plants were infested with approximately 40 wingless aphids. The infested plants were kept in an environmental holding room (23° C., 40% RH, 16 hr light: 8 hr dark) for three days before the number of live aphids was counted under a microscope. Calculations for % Control were based on a corrected basis compared to the populations on the reference plants germinated from seeds treated with the formulation blank.
Corrected % Control=100*(X−Y)/X • where X=No. of live aphids on reference plants • Y=No. of live aphids on treated plants Assay 1. Compounds (1) and (2) were tested at 3 mg/seed. The original 10% SC formulation was used. One half (15 ul) of the sample was spread onto one side of a seed. Once dried (approximately 1 hr), the seed was flipped over and the 2nd half of sample was spread over the other side. Fourteen and 25 days after planting, aphid infestations were conducted on the 1st and 2nd true leaves, respectively.
Assay 2. Compound (2) was tested at 0.1 and 1 mg/seed. For the 1 mg/seed treatment, the original 10% formulation was used. For the 0.1 mg/seed treatment, the 10% formulation were diluted 10× with DI water before application. One half (5 ul) of the sample was spread onto one side of a seed. Once dried (approximately 1 hr), the seed was flipped over and the 2nd half of sample was spread over the other side. Thirteen days after planting, the 1st leaf was infested.

Experiment [2] deals with Green Peach Aphid (Myzus persicae). The experiment in a line: Green peach aphid root uptake assay on pepper. The experiment is classed as in vivo. To be noted: 3 days after infestation. The method, then: These assays were designed to evaluate the possibility of using the compounds identified in the foregoing examples for applications such as nursing trays, transplanting water and/or irrigation. Systemic activity against green peach aphid was evaluated in a root uptake assay. Bell peppers (Capsicum annum var. California Wonder) were used as test plants seeded and grown in rock wool plugs. Plants were grown to expanding 1st true leaf stage. The rock wool plugs containing individual plants were placed in 1-ounce cups and surrounded with white clean sand. Five plants were used for each treatment. A volume of 5 mL of the test solutions was applied to each cup (each plant). After insecticide application, the seedlings were infested with green peach aphids and held in a growth chamber (25° C., 50% RH, 16 hr light: 8 hr dark). Number of live aphids on each plant was counted at 3 days after infestation. Calculations for % Control were based on a corrected basis compared to the populations on the reference plants.
Corrected % Control=100*(X−Y)/X • where X=No. of live aphids on reference plants • Y=No. of live aphids on treated plants Assay 1: Compound (3) was tested at a dose range of 5-500 μg/plant. A stock solution of 1000 ppm (1 mg/mL) was made by dissolving technical test compound in acetone:ethanol (90:10). The highest test concentration (100 ppm, 500 μg/5 ml) was prepared by diluting 2.5 mL stock solution with 22.5 mL DI water. The lower test concentrations (25 mL) were similarly prepared by diluting aliquots of the stock solution with DI water. Reference plants received DI water only.
Assay 2: Compound (2) was tested at a dose range of 0.08-50 μg/plant. A stock solution of 1000 ppm was made by dissolving 2 mg of technical test compound in 2 mL acetone. The highest test concentration (10 ppm, 50 μg/5 ml) was prepared by diluting 0.32 mL stock solution with 1.6 mL acetone and 30.08 mL DI water, containing 6% acetone. Lower test concentrations were prepared by sequentially diluting 6.5 mL higher concentration (start from the 10 ppm test solution) with 26.0 ml acetone: DI water (6:94). The solvent/diluent system (6% acetone) was used as reference.

The subject of experiment [3] is sweet potato whitefly, Bemisia tabaci. To be noted: more recently-collected strains of whitefly, late 1990s; cited from earlier work.

As for `CS(=O)(Cc1ccc(Cl)nc1)=NC#N` (stereo not drawn) [Compound 1, [(6-Chloropyridin-3-yl)methyl](methyl)oxido-λ^4-sulfanylidenecyanamide], in experiment [1], the “% Control, seed coating systemic 1st leaf, 14 days after planting” value was 100% and the “% Control, seed coating systemic 2nd leaf, 25 days after planting” value came to 99.6%.
Take `N#CN=S1(=O)CCCC1Cc1ccc(Cl)nc1` (stereo not drawn) [Compound 3, 2-[(6-chloropyridin-3-yl)methyl]-1-oxidotetrahydro-1H-1-λ^4-thien-1-ylidenecyanamide]: the “% Control, root uptake systemic” value in experiment [2] (5 μg/plant) worked out at 10%; in experiment [2] (50 μg/plant) it was 88%; in experiment [2] (500 μg/plant), 100%.
`O=[N+]([O-])NC1=NCCN1Cc1ccc(Cl)nc1` [imidacloprid, Imidacloprid]: in experiment [3], the resistance entry is on record as “more than 100 fold”.

Source of the values: US20080108665A1, “Use of N-substituted sulfoximines for control of invertebrate pests” (priority 2006, published 2008).
